# Where a name gives a salt, the structure may show the parent alone.
row,melting point [°C],Structure (SMILES)
1,184.5,CN1C2CCC1CC(N(C)S(=O)(=O)c1ccc(Nc3nccc(Nc4ccc(F)cc4)n3)cc1)C2 (stereo not shown)
2,133,CCOP(=O)(CCN1CCC(NS(=O)(=O)c2ccc(Nc3nccc(Nc4ccc(F)c(F)c4)n3)cc2)CC1)OCC
3,137.8,CCOP(=O)(CN1CCC(NS(=O)(=O)c2ccc(Nc3nccc(Nc4ccc(F)c(F)c4)n3)cc2)CC1)OCC
4,93 to 96,CCOP(=O)(CCN1CCC(N(C)S(=O)(=O)c2ccc(Nc3nccc(Nc4ccc(F)c(F)c4)n3)cc2)CC1)OCC
5,88 to 90,CCOP(=O)(CCN1CCC(N(CCN)S(=O)(=O)c2ccc(Nc3nccc(Nc4ccc(F)c(F)c4)n3)cc2)CC1)OCC
6,94 to 96,CCOP(=O)(CCN1CCC(N(CCCN)S(=O)(=O)c2ccc(Nc3nccc(Nc4ccc(F)c(F)c4)n3)cc2)CC1)OCC
7,95 to 100,CCOP(=O)(CCN1CCC(N(C)S(=O)(=O)c2ccc(Nc3nccc(Nc4ccc(F)cc4)n3)cc2)CC1)OCC
8,90,CCOP(=O)(CCN1CCC(N(CCN)S(=O)(=O)c2ccc(Nc3nccc(Nc4ccc(F)cc4)n3)cc2)CC1)OCC
9,110,CCOP(=O)(CCCN1CCC(NS(=O)(=O)c2ccc(Nc3nccc(Nc4ccc(F)cc4)n3)cc2)CC1)OCC
10,125 to 130,CCOP(=O)(CCN1CCC(N(CCCN)S(=O)(=O)c2ccc(Nc3nccc(Nc4ccc(F)cc4)n3)cc2)CC1)OCC
11,85,CCOP(=O)(CCN1CCC(N(CCN2CCCC2)S(=O)(=O)c2ccc(Nc3nccc(Nc4ccc(F)cc4)n3)cc2)CC1)OCC
12,200,CC(C)(O)CNCCN(C1CCN(Cc2ccccc2)CC1)S(=O)(=O)c1ccc(Nc2nccc(Nc3ccc(F)cc3)n2)cc1 (as salt: hydrochloride)
13,275,CN(C1CCNCC1)S(=O)(=O)c1ccc(Nc2nccc(Nc3ccc(F)c(F)c3)n2)cc1 (as salt: hydrochloride)
14,215 to 220,Cc1cc(Nc2ccnc(Nc3ccc(S(=O)(=O)N(C)C4CCNCC4)cc3)n2)ccc1F (as salt: hydrochloride)
15,225,CN1CCC(N(CCN)S(=O)(=O)c2ccc(Nc3nccc(Nc4ccc(F)cc4)n3)cc2)CC1 (as salt: hydrochloride)
16,220,CN(C)CCN(C1CCNCC1)S(=O)(=O)c1ccc(Nc2nccc(Nc3ccc(F)cc3)n2)cc1 (as salt: hydrochloride)
17,200,O=S(=O)(c1ccc(Nc2nccc(Nc3ccc(F)cc3)n2)cc1)N(CCN1CCCC1)C1CCNCC1 (as salt: hydrochloride)
18,185,CCOP(=O)(CCN1CCC(N(CC2CCCN2)S(=O)(=O)c2ccc(Nc3nccc(Nc4ccc(F)cc4)n3)cc2)CC1)OCC (stereo not shown) (as salt: hydrochloride)
19,230 to 232,NCCN(C1CCN(Cc2ccccc2)CC1)S(=O)(=O)c1ccc(Nc2nccc(Nc3ccc(F)cc3)n2)cc1 (as salt: hydrochloride)
20,> 220,NCCN(C1CNC1)S(=O)(=O)c1ccc(Nc2nccc(Nc3ccc(F)cc3)n2)cc1 (as salt: hydrochloride)
21,250,CCNCCN(C1CCNCC1)S(=O)(=O)c1ccc(Nc2nccc(Nc3ccc(F)cc3)n2)cc1 (as salt: hydrochloride)
22,200,NCCN(C1CCOCC1)S(=O)(=O)c1ccc(Nc2nccc(Nc3ccc(F)cc3)n2)cc1 (as salt: hydrochloride)

row,melting point [°C],Structure (SMILES)
1,205,Cc1cc(Nc2ccnc(Nc3ccc(S(=O)(=O)N(CCN)C4CNC4)cc3)n2)ccc1F (as salt: hydrochloride)
2,225,Cc1cc(Nc2ccnc(Nc3ccc(S(=O)(=O)N(CCN)C4CCN(CC(F)(F)F)CC4)cc3)n2)ccc1F (as salt: hydrochloride)
3,205 to 210,"CN(C1CCNCC1)S(=O)(=O)c1ccc(Nc2nccc(Nc3ccc(F)cc3)n2)cc1 (as salt: hydrochloride) [Example 8, 4-[4-(4-Fluorophenylamino)pyrimidin-2-ylamino]-N-methyl-N-piperidin-4-yl-benzenesulfonamide]"
4,270,"NCCN(C1CCNCC1)S(=O)(=O)c1ccc(Nc2nccc(Nc3ccc(F)cc3)n2)cc1 (as salt: hydrochloride) [Example 44, N-(2-Aminoethyl)-4-[4-(4-fluorophenyl-amino)pyrimidin-2-ylamino]-N-piperidin-4-ylbenzene-sulfonamide hydrochloride]"
5,220,"CNCCN(C1CCN(C)CC1)S(=O)(=O)c1ccc(Nc2nccc(Nc3ccc(F)cc3)n2)cc1 (as salt: hydrochloride) [Example 46, 4-[4-(4-Fluorophenylamino)pyrimidin-2-yl-amino]-N-(2-methylaminoethyl)-N-(1-methylpiperidin-4-yl)benzenesulfonamide hydrochloride]"
6,245 to 247,"NCCCN(C1CCNCC1)S(=O)(=O)c1ccc(Nc2nccc(Nc3ccc(F)cc3)n2)cc1 (as salt: hydrochloride) [Example 92, N-(3-Aminopropyl)-4-({4-[(4-fluorophenyl)-amino]pyrimidin-2-yl}amino)-N-piperidin-4-ylbenzene-sulfonamide hydrochloride]"
7,220,"Cc1cc(Nc2ccnc(Nc3ccc(S(=O)(=O)N(CCN)C4CCN(C)CC4)cc3)n2)ccc1F (as salt: hydrochloride) [Example 95, N-(2-Aminoethyl)-4-({4-[(4-fluoro-3-methyl-phenyl)amino]pyrimidin-2-yl}amino)-N-(1-methylpiperidin-4-yl)benzenesulfonamide hydrochloride]"
8,215,"O=S(=O)(c1ccc(Nc2nccc(Nc3ccc(F)cc3)n2)cc1)N(CCN1CCCC1)C1CNC1 (as salt: hydrochloride) [Example 96, N-Azetidin-3-yl-4-({4-[(4-fluorophenyl)-amino]pyrimidin-2-yl}amino)-N-(2-pyrrolidin-1-ylethyl)-benzenesulfonamide hydrochloride]"
9,231 to 235,"Cc1cc(Nc2ccnc(Nc3ccc(S(=O)(=O)N(CCN4CCCC4)C4CNC4)cc3)n2)ccc1F (as salt: hydrochloride) [Example 97, N-Azetidin-3-yl-4-({4-[(4-fluoro-3-methyl-phenyl)amino]pyrimidin-2-yl}amino)-N-(2-pyrrolidin-1-ylethyl)benzenesulfonamide hydrochloride]"
10,240 to 245,"NCCN(C1CCN(CC(F)(F)F)CC1)S(=O)(=O)c1ccc(Nc2nccc(Nc3ccc(F)cc3)n2)cc1 (as salt: hydrochloride) [Example 100, N-(2-Aminoethyl)-4-({4-[(4-fluorophenyl)-amino]pyrimidin-2-yl}amino)-N-[1-(2,2,2-trifluoro-ethyl)piperidin-4-yl]benzenesulfonamide hydrochloride]"
11,200,"CN1CCC(N(C[C@@H]2CCCN2)S(=O)(=O)c2ccc(Nc3nccc(Nc4ccc(F)cc4)n3)cc2)CC1 (as salt: hydrochloride) [Example 123, 4-({4-[(4-Fluorophenyl)amino]pyrimidin-2-yl}amino)-N-(1-methylpiperidin-4-yl)-N-[(2S)-pyrrolidin-2-ylmethyl]benzenesulfonamide]"
12,200,"CN1CCC(N(C[C@H]2CCCN2)S(=O)(=O)c2ccc(Nc3nccc(Nc4ccc(F)cc4)n3)cc2)CC1 (as salt: hydrochloride) [Example 124, 4-({4-[(4-Fluorophenyl)amino]pyrimidin-2-yl}amino)-N-(1-methylpiperidin-4-yl)-N-[(2R)-pyrrolidin-2-ylmethyl]benzenesulfonamide]"
13,189,CN1CCC(N(CC2CCCO2)S(=O)(=O)c2ccc(Nc3nccc(Nc4ccc(F)cc4)n3)cc2)CC1 (racemic) [Example 154]
14,205 to 210,"CN1CCC(N(C)S(=O)(=O)c2ccc(Nc3nccc(Nc4ccc(F)cc4)n3)cc2)CC1 [Example 1, 4-[4-(4-Fluorophenylamino)pyrimidin-2-ylamino]-N-methyl-N-(1-methylpiperidin-4-yl)benzenesulfonamide]"
15,253 to 254,"O=C(CNS(=O)(=O)c1ccc(Nc2nccc(Nc3ccc(F)cc3)n2)cc1)NC1CCOCC1 [Example 2, 2-{4-[4-(4-Fluorophenylamino)pyrimidin-2-ylamino]benzenesulfonylamino}-N-(tetrahydropyran-4-yl)-acetamide]"
16,186 to 190,"CN(C1CCN(Cc2ccccc2)CC1)S(=O)(=O)c1ccc(Nc2nccc(Nc3ccc(F)cc3)n2)cc1 [Example 3, N-(1-Benzylpiperidin-4-yl)-4-[4-(4-fluoro-phenylamino)pyrimidin-2-ylamino]-N-methylbenzene-sulfonamide]"
17,177 to 181,"CN1CCC(N(C)S(=O)(=O)c2ccc(Nc3nccc(Nc4ccc(F)cc4)n3)cc2)C1 (stereo not shown) [Example 5, 4-[4-(4-Fluorophenylamino)pyrimidin-2-yl-amino]-N-methyl-N-(1-methylpyrrolidin-3-yl)benzene-sulfonamide]"
18,236 to 240,"CN(C1CCS(=O)(=O)C1)S(=O)(=O)c1ccc(Nc2nccc(Nc3ccc(F)cc3)n2)cc1 (stereo not shown) [Example 6, N-(1,1-Dioxotetrahydro-1λ^6-thiophen-3-yl)-4-[4-(4-fluorophenylamino)pyrimidin-2-ylamino]-N-methyl-benzenesulfonamide]"
19,202 to 204,"CN(C1CCN(Cc2ccccn2)CC1)S(=O)(=O)c1ccc(Nc2nccc(Nc3ccc(F)cc3)n2)cc1 [Example 9, 4-[4-(4-Fluorophenylamino)pyrimidin-2-ylamino]-N-methyl-N-(1-pyridin-2-ylmethylpiperidin-4-yl)benzenesulfonamide]"
20,162 to 163,"CCN1CCC(N(C)S(=O)(=O)c2ccc(Nc3nccc(Nc4ccc(F)cc4)n3)cc2)CC1 [Example 10, N-(1-Ethylpiperidin-4-yl)-4-[4-(4-fluoro-phenylamino)pyrimidin-2-ylamino]-N-methylbenzene-sulfonamide]"
21,181 to 183,"CN1CCC(N(C)S(=O)(=O)c2ccc(Nc3nccc(Nc4ccc(F)c(F)c4)n3)cc2)CC1 [Example 11, 4-[4-(3,4-Difluorophenylamino)pyrimidin-2-ylamino]-N-methyl-N-(1-methylpiperidin-4-yl)benzene-sulfonamide]"

# Source: patent US20080269170A1, “Novel 2,4-Dianilinopyrimidine Derivatives, the Preparation Thereof, Their Use as Medicaments, Pharmaceutical Compositions and, in Particular, as IKK Inhibitors” (sanofi-aventis, priority 2005, published 2008)
